Experimental findings from patent US9527859B2, “Amidopyridine derivative and use thereof” (Mitsubishi Tanabe Pharma Corporation, priority 2012, dated 2016) are described below.

This data set relates to Salmonella typhimurium TA104 strain. Format: cell-based. The procedure: Genotoxicity Test Using Salmonella typhimurium TA104 Strain Carrying a Reporter Gene Under the Control of DNA Repair Enzyme recN (Vitotox Test)
To prepare agents for stock of tester strain, Amp solution (50 mg/mL) and Tet solution (10 mg/mL) were prepared, and then LB-agar plate (35 mg/mL+Amp (100 μg/mL)+Tet ([…])) was prepared, and LB medium (20 mg/mL+Amp (100 μg/mL)+Tet (20 μg/mL)) was prepared. Then, LB medium for pre-incubation (10 mg/mL), LB medium for test (4 mg/mL) and enhancer reagent (50 mg (CaCl2.H2O)/mL) were prepared.
Freezing stock of bacterial strain was thawed to be streaked on LB-agar plate, and incubated in an incubator (TITEC, BIO-SHAKER BR-15) at 37° C. overnight. […]
A solution for positive control was prepared as below. […] When the test compound was completely dissolved, the highest concentration as prepared was determined to be a highest dose, and when a precipitate was found, a homogeneous suspension which was able to be pipetted was determined to be a highest dose.
After a fluorescent and luminescent photometer (Thermo Labsystem, Fluoroskan Ascent FL), plate and medium for test were set up, Genox and Cytox reaction solutions were prepared as below. Dilution factor as well as requisite amounts for medium for test, pre-incubation strain solution, Enhancer Reagent and S9 mix were calculated so that OD590 was set as about 0.03 for each culture solution. […]

SMILES strings stand for the structures.

With `Nc1cnc(N2CCC(O)CC2)c(C2CC2)c1` [1-(5-amino-3-cyclopropylpyridin-2-yl)piperidin-4-ol], the “Genotoxicity (Vitotox test)” value was “negative”.
